Consider 4 molecules from patent US5260276A, “Linear and monocyclic endothelin antagonists” (Warner-Lambert Company, priority 1991, dated 1993).

pIC50: −log10 of the molar value. Where a SMILES comes first, the peptide text is derived from it. Bridges are numbered along the chain shown (N, C = ends). Where no end group is shown, it is not given here. [ ]: non-standard residue; d: D form. Ava = NCCCCC(=O)O

The target of assay [1] is endothelin receptor ([125I]-ET-1 binding), rat heart ventricle. The experiment in a line: Inhibition of [125I]-ET-1 binding in a receptor assay, rat heart ventricle. To be noted: [125I]-ET-1, rat heart ventricle 10 μg, 37° C., 2 hours. The procedure: The compounds of Formula I are valuable antagonists of endothelin. […] Thus, the compounds of Formula I were tested for their ability to inhibit [^125 I]-ET-1([^125 I]-Endothelin-1) binding in a receptor assay. The binding of the compounds of Formula I is determined by incubation (37° C., 2 hours) of a compound of Formula I with [^125 I]-ET-1 and the tissue (rat heart ventricle (10 μg)) in 50 mM Tris(hydroxymethyl)aminomethane hydrochloride (Tris-HCl) (pH 7.4), 5 mM ethylenediamine tetraacetic acid (EDTA), 2 mM ethylene glycol bis(β-aminoethyl ether)N,N,N',N'-tetraacetic acid (EGTA), 100 μM phenylmethylsulfonyl fluoride (PMSF), and 100 μM bacitracin containing protease inhibitors (total volume of 0.5 mL). IC50 values are calculated by weighing nonlinear regression curve-fitting to the mass-action (Langmuir) equation. The functional activity of compounds of Formula I is determined in Rat-1 cells by measuring intracellular levels of second messengers. Thus, cells are prelabeled with [^3 H]-inositol and endothelin-stimulated accumulation of total [^3 H]-inositol phosphates in the presence of Li^+ is monitored using anion exchange chromatography as described by Muldoon, L. L., et al, Journal of Biological Chemistry, Volume 264, pages 8529-8536 (1989) and Dudley, D. T., et al, Molecular Pharmacology, Volume 38, pages 370-377 (1990). Antagonist activity is assessed as the ability of added compounds to reduce endothelin stimulated inositol phosphate accumulation. The data in the table show the endothelin antagonist activity of representative compounds of Formula I.

In assay [2] the test system is ET receptor, selected tissues. The settings on record: relative to ET-1; cited from earlier work.

Usually pIC50 stands for the negative decadic logarithm of the IC50, by convention in mol/L. Read a high pIC50 as a low IC50. In assay [1], `CC[C@H](C)[C@H](NC(=O)[C@H](CC(=O)O)NC(=O)[C@H](CC(C)C)NC(=O)[C@H](Cc1c[nH]cn1)NC(=O)[C@@H]1CSSC[C@H](N)C(=O)N[C@@H](CO)C(=O)NCCCCC(=O)N[C@@H](C(C)C)C(=O)N[C@@H](Cc2ccc(O)cc2)C(=O)N[C@@H](Cc2ccccc2)C(=O)N1)C(=O)N[C@H](C(=O)N[C@@H](Cc1c[nH]c2ccccc12)C(=O)O)[C@@H](C)CC` [Example 5] (H-CS[Ava]VYFCHLDIIW-OH; disulfide 1-7; N-terminus and C-terminus assumed) gave a pIC50 of 5.74.

`CC[C@H](C)[C@H](NC(=O)[C@H](CC(=O)O)NC(=O)[C@H](CC(C)C)NC(=O)[C@H](Cc1c[nH]cn1)NC(=O)[C@@H]1CSSC[C@H](N)C(=O)N[C@@H](CO)C(=O)N[C@@H](CC(=O)O)C(=O)N[C@@H](CC(C)C)C(=O)N[C@@H](CCC(=O)O)C(=O)N[C@@H](C(C)C)C(=O)N[C@@H](Cc2ccc(O)cc2)C(=O)N[C@@H](Cc2ccccc2)C(=O)N1)C(=O)N[C@H](C(=O)N[C@@H](Cc1c[nH]c2ccccc12)C(=O)O)[C@@H](C)CC` [Example 10] (H-CSDLEVYFCHLDIIW-OH; disulfide 1-9) gave a pIC50 in assay [1] of 5.49.

`CC[C@@H](C)[C@@H](NC(=O)[C@@H](NC(=O)[C@H](CC(=O)O)NC(=O)[C@H](CC(C)C)NC(=O)[C@H](Cc1c[nH]cn1)NC(=O)[C@@H]1CSSC[C@H](N)C(=O)N[C@@H](CO)C(=O)N[C@@H](CO)C(=O)N[C@@H](CO)C(=O)N[C@@H](C(C)C)C(=O)N[C@@H](Cc2ccc(O)cc2)C(=O)N[C@@H](Cc2ccccc2)C(=O)N1)[C@@H](C)CC)C(=O)N[C@@H](Cc1c[nH]c2ccccc12)C(=O)O` [Example 14] (H-CSSSVYFCHLDI[dI]W-OH; disulfide 1-8; N-terminus assumed): the pIC50 in assay [1] is 5.59.

Take “ET[1-20]: endothelin-1 fragment 1-20, lacking the C-terminal amino acid Trp-21 (CSCSSLMDKECVYFCHLDII; ends and bridges not checked; cysteine pairing not given here; UniProt P05305 53-72, looked up, fragment)”: the “fold less functional activity” value in assay [2] was “approximately 1000 fold”.
